Entries after “also recorded” stand apart in the source; their conditions may differ.

For data set [1], the system named is TRPA1-dependent hypersensitivity. Particulars: short-term systemic treatment before the cytotoxic drug (bortezomib or oxaliplatin); cited from earlier work.
For data set [2], the system named is human lung cancer cell line H460. Kind of data set: LDH assay (membrane integrity) in H460 cancer cells. Type of data set: cell-based. The note with it: each agent alone, 3 days: MTX 100 μM, 5-FU 25 μM, CDDP 3.5 μM, PAN-811 10 μM. As for the experimental part:
(§1) Cancer Cell Culture. The mouse liver cancer cell line BNLT3 (gift of Dr. Jack Wands, Brown University) and the human lung cancer cell line H460 (ATCC) were seeded into 96-well plates at a density of 4,000 cells/well and cultured at 37° C., 5% CO2, in DMEM (11965, Gibco) supplemented with 10% fetal bovine serum, 20 mM HEPES, 1 mM sodium pyruvate, and […] gentamycin (all reagents came from Gibco).
Cell Insults and Treatments. Determination of concentration for each anticancer drug in our experiments was based on its reported concentration in human cerebral spinal fluid (CSF) in chemotherapy, literature report of its neurotoxicity in culture, and our preliminary in vitro experimental data. […] […] PAN-811.Cl.H2O was added to cultures to final concentrations of 1.25, 2.5, 5, and 10 μM at the same time as addition of the anticancer drugs. For cancer cell lines, the cells were insulted by the second day of cell seeding with the same concentration of MTX, 5-FU, or CDDP as used in neuronal culture in the absence or presence of 10 μM PAN-811.Cl.H2O for another 3 days.
(§2) Quantitative Assays and Morphological Assessment. Cell membrane integrity and mitochondrial function of either neurons or cancer cells were measured with LDH and 3-(4,5-dimethylthiazol-2-yl)-5-(3-carboxymethoxyphenyl)-2-(4-sulfophenyl)-2H-tetrazolium [MTS] analyses, respectively. The latter has been used to quantify cell survival. For the LDH assay, a mixture of a 35 μL aliquot of culture supernatant and 17.5 μL of Mixed Substrate, Enzyme and Dye Solutions (Sigma) was incubated at room temperature (RT) for 30 minutes. For the MTS assay, 10 μL of MTS reagent (Promega) was added to a culture well containing neurons in 50 μL of medium. The preparations were incubated at 37° C. for 2 hours. The preparations for both assays were then spectrophotometrically measured at 490 nm using a 96-well plate reader (Mode 550, Bio-Rad). Neuronal cell death was morphologically determined based on the integrity of the cell soma and continuity of neuronal processes. The change in number of cancer cells was judged directly by cell density. Cells were photographed under an inverted phase contrast microscope (IX 70, Olympus) using 10× or 20× objective.
(§3) Data Analysis. Data were generated from 4-6 replicate wells, expressed as mean±standard deviation (SD), and statistically evaluated at a significance level of 1% with one factor ANOVA or Student's t-test by using software VASSARSTATS (http://vassarstats.net/) followed by the Tukey HSD test. Figure symbols are as follows: #, P<0.05, and ##, P<0.01, compared with control; *, P<0.05, and **, P<0.01, compared with the insulted group; §§, P<0.01, compared with PAN-811 treated group by Student's t-test.

Data set [3] has as its system mixed cortical and striatal neurons. Kind of data set: Morphological assessment of neuronal cell death. Type of data set: cell-based, Sprague-Dawley rats. Particulars: MTX 100 μM, 5-FU 25 μM, CDDP 3.5 μM; for visible cell damage: neurons in 25% AO, 3 days; for neuronal cell death / loss of neurons (morphology): AO reduced to 12.5% for 5 hours at 16 d.i.v. How it is done:
(§4) Neuronal Cell Culture. Mixed cortical and striatal neurons fromembryonic day 17 male Sprague-Dawley rats (tissue obtained from NIH) were seeded into poly-D-lysine coated 96-well plates at density of 50,000 cells/well and initially cultured at 37° C., 5% CO2, in neurobasal medium (NB) with B27 supplement (Invitrogen) containing full strength of AOs to obtain highly enriched (95%) neurons. Since AOs, including vitamin E, vitamin E acetate, superoxide dismutase (SOD), catalase (CAT), and GSH, are additives to culture medium, reduction of AO concentration in culture medium provides an approach to determine the level of OS involvement in a neurotoxic process. In our study, the culture medium was replaced at a 50% ratio with NB plus B27 minus AOs twice at days 7 and 9 to set AO concentrations as 50% and 25%, respectively. At 16 days in vitro (d.i.v.), a fraction of the culture medium was harvested for lactate dehydrogenase (LDH) assay, and then AO concentration was reduced to 12.5% and cultured for a further 5 hours prior to ending the experiment.
(§5) Cell Insults and Treatments. Determination of concentration for each anticancer drug in our experiments was based on its reported concentration in human cerebral spinal fluid (CSF) in chemotherapy, literature report of its neurotoxicity in culture, and our preliminary in vitro experimental data. At 13 d.i.v., the neuronal cell cultures were insulted with 100 μM of MTX (M9929, Sigma), 25 μM of 5-FU (F6627, Sigma), or 3.5 μM of CDDP (sc-200896, Santa Cruz) for 3 days in absence or presence of PAN 811.Cl.H2O. For ROS examination, the neurons were insulted with both 100 μM of MTX and 25 μM of 5-FU by 15 d.i.v. PAN-811.Cl.H2O was added to cultures to final concentrations of 1.25, 2.5, 5, and 10 μM at the same time as addition of the anticancer drugs. For cancer cell lines, the cells were insulted by the second day of cell seeding with the same concentration of MTX, 5-FU, or CDDP as used in neuronal culture in the absence or presence of 10 μM PAN-811.Cl.H2O for another 3 days.
as §2

Data set [4] relates to mouse liver cancer cell line BNLT3. Kind of data set: Cell density of BNLT3 cells (phase contrast). Type of data set: cell-based. The note with it: each agent alone, 3 days: MTX 100 μM, 5-FU 25 μM, CDDP 3.5 μM, PAN-811 10 μM. How it is done: as §1, §5, §2
The test system of data set [5] is human lung cancer cell line H460. Kind of data set: MTS assay in H460 cancer cells. The data set is classed as cell-based. The note with it: each agent alone, 3 days: MTX 100 μM, 5-FU 25 μM, CDDP 3.5 μM, PAN-811 10 μM. How it is done:
as §1, §5, §2, §3

For data set [6], the system named is mixed cortical and striatal neurons. Kind of data set: MTS assay (cell viability) in neuronal cell culture. The data set is classed as cell-based. Particulars: MTX 100 μM, 5-FU 25 μM, CDDP 3.5 μM; for reduction of MTS reading / effect on MTS reading (in words): neurons in 12.5% AO; for effect on MTS reading (in words): FIG. 2(c); for change in MTS level: neurons in 25% AO, 3 days, data not shown. As for the experimental part: as §4, §5, §2, §3

The test system of data set [7] is human lung cancer cell line H460. Kind of data set: Cell density of H460 cells (phase contrast). Type of data set: cell-based. Particulars: each agent alone, 3 days: MTX 100 μM, 5-FU 25 μM, CDDP 3.5 μM, PAN-811 10 μM. As for the experimental part: as §1, §5, §2
In data set [8] the test system is mouse liver cancer cell line BNLT3. Kind of data set: MTS assay in BNLT3 cancer cells. The data set is classed as cell-based. The note with it: each agent alone, 3 days: MTX 100 μM, 5-FU 25 μM, CDDP 3.5 μM, PAN-811 10 μM. How it is done: as §1, §5, §2, §3
For data set [9], the system named is mixed cortical and striatal neurons. Kind of data set: LDH assay (cell membrane integrity) in neuronal cell culture. The data set is classed as cell-based. Particulars: MTX 100 μM, 5-FU 25 μM, CDDP 3.5 μM; for LDH increase in culture supernatant (cell membrane leakage): neurons in 25% AO; for LDH increase in culture supernatant (cell membrane leakage) / morphological changes, LDH release, or MTS reduction: 3 days; for morphological changes, LDH release, or MTS reduction: neurons in 100% or 50% AOs, data not shown; for increase in LDH reading: neurons, FIG. 2(b). As for the experimental part: as §4, §5, §2, §3

In data set [10] the test system is oxaliplatin-induced behavioral alterations. The note with it: in vivo; cited from earlier work.

For the molecule `CC(C)c1ccc(NC(=O)Cn2cnc3c2c(=O)n(C)c(=O)n3C)cc1` [HC-030031], the prevention of hypersensitivity result in data set [1] was “completely prevent hypersensitivity”.

As for `[NH2][Pt]([NH2])([Cl])[Cl]` [CDDP, cisplatin], the “increase in LDH reading in culture supernatant” value in [2] is 71%. In data set [3], the visible cell damage result is “no cell damage was visible” and the “neuronal cell death / loss of neurons (morphology)” value is reported as “extensive neuronal cell death; also recorded: robust loss of neurons”. For the same molecule, the “cell density / cancer cell number” value in [4] was “caused a decrease in the cell density”. Moreover, in data set [5], the “reduction of MTS reading” value stood at 22%. Moreover, in data set [6], the “reduction of MTS reading” value amounted to 66%, the “effect on MTS reading (in words)” value is “significant reduction in MTS readings” and the “change in MTS level” value is given as “no change in MTS level was detectable”. For the same molecule, the cell density result in data set [7] is listed as “greatly decreased the cell density”. Moreover, the “reduction of MTS reading” value in data set [8] came out at 44%. Moreover, in data set [9], the “LDH increase in culture supernatant (cell membrane leakage)” value (shortened to “LDH increase in culture supernatant”) is listed as “significant LDH increase”; the “morphological changes, LDH release, or MTS reduction” value is on record as “neither MTX at 100 μM, 5-FU at 25 μM, nor CDDP at 3.5 μM caused morphological changes, LDH release, or MTS reduction”; the “increase in LDH reading” value is on record as “significant increases in LDH reading”.

Regarding `O=c1[nH]cc(F)c(=O)[nH]1` [5-FU, fluorouracil], the “increase in LDH reading in culture supernatant” value in data set [2] stood at 124%. For the same molecule, in data set [3], the visible cell damage result is reported as “no cell damage was visible” and the “neuronal cell death / loss of neurons (morphology)” value is “extensive neuronal cell death; also recorded: robust loss of neurons”. The “cell density / cancer cell number” value in [4] is on record as “significantly reduced the cell density”. For the same molecule, the “reduction of MTS reading” value in data set [5] stood at 57%. In addition, in data set [6], the “reduction of MTS reading” value turned out to be 27%, the “effect on MTS reading (in words)” value is recorded as “significant reduction in MTS readings” and the “change in MTS level” value is reported as “no change in MTS level was detectable”. In addition, the cell density entry in data set [7] is “robustly decreased the cell density”. The “reduction of MTS reading” value in data set [8] is on record as 84%. Further, in data set [9], the “LDH increase in culture supernatant” value is “significant LDH increase”; the “morphological changes, LDH release, or MTS reduction” value is recorded as “neither MTX at 100 μM, 5-FU at 25 μM, nor CDDP at 3.5 μM caused morphological changes, LDH release, or MTS reduction”; the “increase in LDH reading” value is recorded as “significant increases in LDH reading”.

`O=C(O)CCCCC1CCSS1` (stereo not drawn) [α-lipoic acid]: the prevention of hypersensitivity entry in [1] was “completely prevent hypersensitivity”.

Turning to `CN(Cc1cnc2nc(N)nc(N)c2n1)c1ccc(C(=O)N[C@@H](CCC(=O)O)C(=O)O)cc1` [MTX, methotrexate], in [2], the “increase in LDH reading in culture supernatant” value is 95%. For the same molecule, in [3], the visible cell damage entry is listed as “no cell damage was visible” and the “neuronal cell death / loss of neurons (morphology)” value is reported as “did not result in significant loss of cell number”. In addition, the “cell density / cancer cell number” value in [4] is listed as “severely reduced the cancer cell number”. Moreover, in [5], the “reduction of MTS reading” value was 67%. For the same molecule, in data set [6], the “effect on MTS reading (in words)” value is on record as “did not elicit significant MTS reduction; also recorded: did not significantly affect the MTS reading” and the “change in MTS level” value is “no change in MTS level was detectable”. Further, the cell density entry in [7] is given as “robustly decreased the cell density”. In data set [8], the “reduction of MTS reading” value came to 85%. Further, in data set [9], the “LDH increase in culture supernatant” value is “significant LDH increase”; the “morphological changes, LDH release, or MTS reduction” value is given as “neither MTX at 100 μM, 5-FU at 25 μM, nor CDDP at 3.5 μM caused morphological changes, LDH release, or MTS reduction”; the “increase in LDH reading” value is reported as “significant increases in LDH reading”.

As to `Cc1c(C)c2c(c(C)c1O)CC[C@@](C)(CCC[C@H](C)CCC[C@H](C)CCCC(C)C)O2` [α-tocopherol], the “antineuropathic effect on oxaliplatin-induced behavioral alterations” value in [10] is listed as “about 50%”.

These data come from patent publication US10525044B2, “Treatment for chemotherapy-induced peripheral neuropathy” (priority 2013, dated 2020).
